Here are results for 1 compound from ChEMBL document CHEMBL4007395 (J Med Chem, 2017).

Some results are limits rather than exact numbers.

The subject of data set [1] is Plasma. In words: Drug metabolism in human plasma assessed as curcumin sulfate formation at 3.6 g, po administered as capsule measured at 1 hr post dose by UV-HPLC-MS analysis. It is filed as ADME, organism-based. The settings on record: in vivo.
Data set [2] relates to Mus musculus. Kind of data set: Cmax in mouse at 100 mg/kg, po after 30 mins. Details: dose 100 mg/kg, route oral. The class given is ADME, organism-based. The settings on record: in vivo, 0.5 h.
Data set [3] is described as follows: Apparent permeability in human Caco2 cells. It is filed as ADME, cell-based. As to conditions: Caco-2.
The nature of data set [4]: Drug uptake in human rectal mucosa assessed per gram protein at 2 g/day for 30 days. As to conditions: 720 h. It is filed as ADME.
The species entered for data set [5] is Homo sapiens. Kind of data set: Effect on total aberrant foci number in human colon cancer patient at 4 g/day for 30 days during phase IIa trial by colonoscopic analysis. The class given is functional.
For data set [6], the species on record is Homo sapiens. In words: Effect on total aberrant foci number in human colon cancer patient at 2 g/day for 30 days during phase IIa study by colonoscopic analysis. The class given is functional.
Data set [7] is described as follows: Inhibition of HIV-2 protease using anthranilyl-HIV protease as substrate preincubated for 5 mins followed by substrate addition in presence of nonionic detergent Triton-X-100 by fluorescence assay. Details: species or system Human immunodeficiency virus 2.
The nature of data set [8]: Half-life in Tris-HCl buffer at 70 uM at pH 7.2 by UV/Vis spectrophotometric method. It is filed as physicochemical.
Data set [9] is described as follows: Half-life in Tris-HCl buffer at 70 uM at pH 7.5 by UV/Vis spectrophotometric method. The class given is physicochemical.
Data set [10] is described as follows: Cmax in human at 12 g, po administered as single dose capsule after 2 hrs by UV-HPLC method. It is filed as ADME, organism-based. Details: dose 12 g, route oral. As to conditions: in vivo.
Data set [11] in a line: Plasma concentration in human at 3.6 g, po administered as capsule measured at 1 hr post dose by UV-RP-HPLC method. The class given is ADME, organism-based.
A short description of data set [12]: Inhibition of malate dehydrogenase (unknown origin) using oxaloacetate as substrate preincubated for 5 mins followed by substrate addition by UV-vis spectrophotometric method. Details: species or system Homo sapiens.
Data set [13] can be described thus: Inhibition of malate dehydrogenase (unknown origin) using oxaloacetate as substrate preincubated for 5 mins followed by substrate addition in presence of nonionic detergent Triton-X-100 by UV-vis spectrophotometric method. Details: species or system Homo sapiens.
Data set [14] can be described thus: Half-life in Sprague-Dawley rat at 500 mg/kg, po by LC-MS/MS analysis. It is filed as ADME, organism-based. The settings on record: in vivo.
The subject of data set [15] is Plasma. Kind of data set: Plasma concentration in human at 8 g/day, po by HPLC/TMS. It is filed as ADME, organism-based. The settings on record: in vivo.
The nature of data set [16]: Drug uptake in human rectal mucosa assessed per gram protein at 4 g/day for 30 days. It is filed as ADME. As to conditions: 720 h.
The test system of data set [17] is Plasma. Kind of data set: Drug metabolism in human plasma assessed as curcumin glucuronide formation at 3.6 g, po administered as capsule measured at 1 hr post dose by UV-HPLC-MS analysis. As to conditions: in vivo. It is filed as ADME, organism-based.
Data set [18] is described as follows: Inhibition of Escherichia coli AmpC beta-lactamase using CENTA as substrate preincubated for 5 mins followed by substrate addition in presence of nonionic detergent Triton-X-100 by UV-vis spectrophotometric method.
In data set [19] the target is Glycogen synthase kinase-3 beta (Rattus norvegicus, UniProt P18266). In words: Inhibition of recombinant rat N-terminal GST-tagged GSK3beta expressed in Escherichia coli assessed as reduction in tau phosphorylation preincubated for 30 mins followed by tau protein addition measured after 1 hr by ELISA.
A short description of data set [20]: Inhibition of Escherichia coli AmpC beta-lactamase using CENTA as substrate preincubated for 5 mins followed by substrate addition by UV-vis spectrophotometric method.
Data set [21] is described as follows: Inhibition of HIV-2 protease using anthranilyl-HIV protease as substrate preincubated for 5 mins followed by substrate addition by fluorescence assay. Further details: species or system Human immunodeficiency virus 2.
Data set [22] is described as follows: Oral bioavailability in Sprague-Dawley rat at 500 mg/kg by LC-MS/MS analysis. It is filed as ADME, organism-based. The settings on record: in vivo.

Glycogen synthase kinase-3 beta, sequence (P18266 whole entry): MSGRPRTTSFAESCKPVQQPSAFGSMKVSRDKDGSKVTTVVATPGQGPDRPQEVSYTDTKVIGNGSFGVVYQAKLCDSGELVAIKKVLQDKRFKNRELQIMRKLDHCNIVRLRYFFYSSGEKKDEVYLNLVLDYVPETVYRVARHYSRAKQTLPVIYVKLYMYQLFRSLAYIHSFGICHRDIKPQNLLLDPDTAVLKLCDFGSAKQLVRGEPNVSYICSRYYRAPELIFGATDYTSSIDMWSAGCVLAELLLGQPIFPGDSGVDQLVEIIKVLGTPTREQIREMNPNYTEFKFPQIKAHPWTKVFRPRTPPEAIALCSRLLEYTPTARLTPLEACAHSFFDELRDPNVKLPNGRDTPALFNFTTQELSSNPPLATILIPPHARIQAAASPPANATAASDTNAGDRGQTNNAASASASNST

A word on the Cmax: it is the maximum level reached in the sampled fluid or tissue. As a reminder, the Papp is a coefficient for how fast a substance crosses the barrier. For orientation: IC50 means the concentration that gives 50% inhibition. By half-life is commonly meant the time needed for the level to fall by half in the phase considered. One may read the bioavailability as the share of a dose that reaches the circulation, judged against a reference dose that is usually intravenous. Take `COc1cc(/C=C/C(=O)CC(=O)/C=C/c2ccc(O)c(OC)c2)ccc1O` [CURCUMIN]: the Drug metabolism in [1] turned out to be 8.9 nmol/L; in data set [17] it was 15.8 nmol/L. Moreover, the Cmax in [2] worked out at 60 nM; in [10], 57.6 ng/mL. Besides, the Papp in data set [3] came to 3.18 ×10⁻⁶ cm/s. Besides, the Drug uptake turned out to be 8.2 µg in [4] and 3.8 µg in [16]. Besides, the Activity amounted to 6 in [5] and 0 in data set [6]. In addition, the IC50 in data set [7] was greater than 100 µM; in data set [12] it was 9 µM; in [13], greater than 30 µM; in [18], greater than 30 µM; in data set [19] it was 0.066 µM; in data set [20], 12 µM. The compound further yielded an IC50 in [21] of 9 µM. Further, the half-life at 70 µM is less than 10 min in [8] and 20 min in data set [9]. This compound registered a concentration at 1 h in [11] of 11.1 ng/mL. Besides, the half-life in data set [14] was less than 5 min. Moreover, the Cp in data set [15] fell in the range of 22 to 41 ng/mL. The same compound came in with a bioavailability in data set [22] of less than 1%.
